Test results taken from patent US20100093653A1, “Use of 1,6-Bis [3-(3-carboxymethylphenyl)-4-(2-alpha-D-mannopyranosyl-oxy)-phenyl] hexane for the preparation of cosmetic compositions” (Revotar Biopharmaceuticals AG, priority 2006, published 2010).

Key:
porcine skin = experiment: Franz diffusion cell penetration assay using porcine skin; assay type: in vitro ADME; conditions: microemulsion of example 6; 10.4 μl on 1000 μm porcine skin; 8 h; 37° C.; LC/MS
Procedure: By using the microemulsion as described in example 6, skin penetration studies of FORM 1 of 1,6-Bis [3-(3-carboxymethylphenyl)-4-(2-α-D-mannopyranosyloxy)-phenyl]hexane in employing a Franz diffusion cell penetration assay using porcine skin is performed according to the methods known to the skilled person. Porcine skin samples (6 in total, 2 from each animal, 3 female animals in total), 1000 μm thick, with the stratum corneum facing up are placed onto the lower part of a Franz diffusion cell. The cell is rinsed with medium tempered to 37° C. to prevent the skin from drying out and the system is equilibrated for 30 minutes. 10.4 μl of microemulsion as described in example 6 is applied to the dry upper side of the epidermis using a pipette and the microemulsion is distributed with an inoculation loop. Medium is collected every hour.
After 8 h the experiment is finished. The skin is punched out and the surface of the skin is swabed to removed excess microemulsion. The dry surface is stripped 20 times using Tesafilm. Swabs, strips, medium and skin samples are analysed for content of FORM 1 of 1,6-Bis [3-(3-carboxymethylphenyl)-4-(2-α-D-mannopyranosyloxy)-phenyl]hexane by LC/MS. On average 4% of the applied amount of FORM 1 of 1,6-Bis [3-(3-carboxymethylphenyl)-4-(2-α-D-mannopyranosyloxy)-phenyl]hexane in the microemulsion as described in example 6 penetrates into skin.

wrinkles of crow's feet = experiment: Anti-wrinkle efficacy, crow's feet skin replicas with image analysis; assay type: in vivo, healthy subjects; conditions: microemulsion of example 6, twice a day for 28 days; treated vs untreated crow's feet; all subjects
Text: By using the microemulsion as described in example 6, the anti-wrinkle effect of FORM 1 of 1,6-Bis [3-(3-carboxymethylphenyl)-4-(2-α-D-mannopyranosyloxy)-phenyl]hexane (compound of formula (I)) is investigated according to methods known to the skilled person. 40 healthy subjects aged between 34 and 59 years, comprising 35 women and 5 men are selected. The formulation containing FORM 1 of the compound of formula (I), is applied twice a day, in the morning and in the evening, to one temporal zone of the face (crow's feet) for 28 days. The other zone remains untreated and serves as a control. An impression (skin replicas) is made from the control and treated zone at time 0 and after 28 days of treatment using SILFO impression material (Flexico, England).

[1] = tested on: isolated perfused porcine fore limb; experiment: isolated perfused porcine fore limb transdermal penetration assay; assay type: in vitro ADME; conditions: microemulsion of example 6; 5 h application time; LC/MS
Procedure: By using the microemulsion as described in example 6 skin penetration studies of FORM 1 of 1,6-Bis [3-(3-carboxymethylphenyl)-4-(2-α-D-mannopyranosyloxy)-phenyl]hexane employing an isolated perfused porcine fore limb transdermal penetration assay using pig porcine is performed according to the methods known to the skilled person. The isolated perfused porcine fore limb is an assay system, which retains intact anatomy and skin, muscle, blood vessel and bone morphology. The organ is kept vitalized by perfusion with a blood-based perfusion medium for up to 6 h. This system allows monitoring of transdermal, resorption, penetration or permeation of pharmaceuticals and cosmetics. 3 application sites are choosen and surrounded by Leukosilk. On each of these areas 10 μl of microemulsion are applied with a pipette and distributed with the pipette tip.
For three additional application sites, the cotton pads of three Hill Top chambers in total, are soaked and saturated with microemulsion and applied to skin. After 5 h application time Hill Top chambers are removed and the unabsorbed microemulsion from the free sites is removed with a dry swab each. 20 Tesa strips are collected from each of the six applications sites. […] Swabs, strips, skin biopsys are analysed for content of FORM 1 of 1,6-Bis [3-(3-carboxymethylphenyl)-4-(2-α-D-mannopyranosyloxy)-phenyl]hexane with LC/MS. […]

[2] = tested on: skin elasticity of the back; experiment: Model of hormone induced skin ageing (menopause model, bilateral ovarectomy); assay type: in vivo, female hairless mice; conditions: microemulsion of example 6 onto the back twice daily for two months after ovary removal; vehicle control animals showed the reduction
Text: By using the microemulsion as described in example 6, the effect of FORM 1 of 1,6-Bis [3-(3-carboxymethylphenyl)-4-(2-α-D-mannopyranosyloxy)-phenyl]hexane (compound of formula (I)) on hormone induced skin ageing is investigated employing a menopause model according to methods known to the skilled person. Five-week old female hairless mice are subjected to bilateral ovarectomy, and used as an animal model of menopause. For two months from immediately after ovary extraction, the formulation containing FORM 1 of compound of formula (I) is applied onto the back twice daily. As a control, the formulation without FORM 1 of compound of formula (I) is applied in a similar protocol (vehicle control). […] Two months after ovary removal, skin elasticity of the back is measured using a Cutometer (COURAGE KHAZAKSA).

[3] = tested on: photoageing of human skin; experiment: Protective effect against photoaging of human skin, solar simulated UV radiation, immunohistology of biopsies; assay type: in vivo; conditions: microemulsion of example 6, topical before 2 MED UV; buttock skin biopsies 24 hours after exposition; vehicle control skin showed it
Text: By using the microemulsion as described in example 6, the protective effect of FORM 1 of 1,6-Bis [3-(3-carboxymethylphenyl)-4-(2-α-D-mannopyranosyloxy)-phenyl]hexane (compound of formula (I)) against photoageing of human skin is investigated according to methods known to the skilled person. Two areas of buttock skin (each approximately 2×2 cm) of 10 healthy male white volunteers are exposed to erythematogenic doses (2 MED) of solar simulated UV radiation. Before radiation one area is topically treated with the formulation containing FORM 1 of compound of formula (I), the other with the formulation without FORM 1 of compound of formula (I) (vehicle control). 24 hours after exposition, biopsies are taken from both areas and as control from an area that is not exposed to radiation.

photoageing = experiment: Protective effect against photoageing, chronic solar-simulated UV radiation; assay type: in vivo, hairless mice; conditions: microemulsion of example 6, topical twice daily during 30 weeks UV-exposure; histology
Text: By using the microemulsion as described in example 6, the protective effect of FORM 1 of 1,6-Bis [3-(3-carboxymethylphenyl)-4-(2-α-D-mannopyranosyloxy)-phenyl]hexane (compound of formula (I)) against photoageing (hairless mice) is investigated according to methods known to the skilled person. Hairless mice are exposed to chronic solar-simulated UV radiation for 30 weeks.

O=C(O)Cc1cccc(-c2cc(CCCCCCc3ccc(O[C@H]4O[C@H](CO)[C@@H](O)[C@H](O)[C@@H]4O)c(-c4cccc(CC(=O)O)c4)c3)ccc2O[C@H]2O[C@H](CO)[C@@H](O)[C@H](O)[C@@H]2O)c1 [FORM 1 of compound of formula (I), 1,6-Bis [3-(3-carboxymethylphenyl)-4-(2-α-D-mannopyranosyloxy)-phenyl]hexane]
applied amount that penetrates into skin (on average) (porcine skin): 4%
depth of wrinkles (wrinkles of crow's feet): significantly reduces
length of wrinkles (wrinkles of crow's feet): significantly reduces
number of wrinkles (wrinkles of crow's feet): significantly reduces
applied amount that penetrates into skin (on average) [1]: 5%
significantly reduced skin elasticity (Cutometer) as compared to normal animals [2]: This was not the case
matrix-metallo-proteinase-1 (MMP-1) [3]: This is not the case
matrix-metallo-proteinase-9 (MMP-9) [3]: This is not the case
strong infiltration of neutrophils [3]: This is not the case
degraded dermal collagen (photoageing): protected significantly
deposition of glycosamisnoglycans in the lower dermis (photoageing): protected significantly
dermal mast cell number (photoageing): protected significantly
epidermal hyperplasia (photoageing): protected significantly
focal elastotic deposits (photoageing): protected significantly
